Measured values from patent publication US20250122218A1, “MODULATORS OF CYSTIC FIBROSIS TRANSMEMBRANE CONDUCTANCE REGULATOR” (Vertex Pharmaceuticals Incorporated, priority 2022, published 2025).

Biological target: T1, CFTR in F508del/MF-HBE cells (Homo sapiens, UniProt P13569, DEL508-508)
T1 construct: human bronchial epithelial (HBE) cells derived from CF subjects heterozygous for F508del and a minimal function CFTR mutation; endogenous in cells; host or cells: primary human bronchial epithelial cells from CF subjects (F508del/MF-HBE)
Assay: Ussing chamber assay of CFTR-mediated short-circuit currents (identification of potentiator compounds)
Format: cell-based
Conditions: potentiator incubated 18-24 hours at 37° C. in combination with 10 μM corrector, in the presence of 20% human serum, CFTR-mediated ISC
In short: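 F508del/MF-HBE cultures were preincubated 18-24 h at 37° C with potentiator plus 10 μM of a fixed corrector compound in 20% human serum; compounds were kept present during measurement. ISC was recorded under voltage clamp (0 mV, 37° C, amiloride apical) and taken as the 20 μM forskolin peak minus the current after inhibitor cocktail.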

T1 sequence (P13569 with tags, fused parts or gaps DEL508-508): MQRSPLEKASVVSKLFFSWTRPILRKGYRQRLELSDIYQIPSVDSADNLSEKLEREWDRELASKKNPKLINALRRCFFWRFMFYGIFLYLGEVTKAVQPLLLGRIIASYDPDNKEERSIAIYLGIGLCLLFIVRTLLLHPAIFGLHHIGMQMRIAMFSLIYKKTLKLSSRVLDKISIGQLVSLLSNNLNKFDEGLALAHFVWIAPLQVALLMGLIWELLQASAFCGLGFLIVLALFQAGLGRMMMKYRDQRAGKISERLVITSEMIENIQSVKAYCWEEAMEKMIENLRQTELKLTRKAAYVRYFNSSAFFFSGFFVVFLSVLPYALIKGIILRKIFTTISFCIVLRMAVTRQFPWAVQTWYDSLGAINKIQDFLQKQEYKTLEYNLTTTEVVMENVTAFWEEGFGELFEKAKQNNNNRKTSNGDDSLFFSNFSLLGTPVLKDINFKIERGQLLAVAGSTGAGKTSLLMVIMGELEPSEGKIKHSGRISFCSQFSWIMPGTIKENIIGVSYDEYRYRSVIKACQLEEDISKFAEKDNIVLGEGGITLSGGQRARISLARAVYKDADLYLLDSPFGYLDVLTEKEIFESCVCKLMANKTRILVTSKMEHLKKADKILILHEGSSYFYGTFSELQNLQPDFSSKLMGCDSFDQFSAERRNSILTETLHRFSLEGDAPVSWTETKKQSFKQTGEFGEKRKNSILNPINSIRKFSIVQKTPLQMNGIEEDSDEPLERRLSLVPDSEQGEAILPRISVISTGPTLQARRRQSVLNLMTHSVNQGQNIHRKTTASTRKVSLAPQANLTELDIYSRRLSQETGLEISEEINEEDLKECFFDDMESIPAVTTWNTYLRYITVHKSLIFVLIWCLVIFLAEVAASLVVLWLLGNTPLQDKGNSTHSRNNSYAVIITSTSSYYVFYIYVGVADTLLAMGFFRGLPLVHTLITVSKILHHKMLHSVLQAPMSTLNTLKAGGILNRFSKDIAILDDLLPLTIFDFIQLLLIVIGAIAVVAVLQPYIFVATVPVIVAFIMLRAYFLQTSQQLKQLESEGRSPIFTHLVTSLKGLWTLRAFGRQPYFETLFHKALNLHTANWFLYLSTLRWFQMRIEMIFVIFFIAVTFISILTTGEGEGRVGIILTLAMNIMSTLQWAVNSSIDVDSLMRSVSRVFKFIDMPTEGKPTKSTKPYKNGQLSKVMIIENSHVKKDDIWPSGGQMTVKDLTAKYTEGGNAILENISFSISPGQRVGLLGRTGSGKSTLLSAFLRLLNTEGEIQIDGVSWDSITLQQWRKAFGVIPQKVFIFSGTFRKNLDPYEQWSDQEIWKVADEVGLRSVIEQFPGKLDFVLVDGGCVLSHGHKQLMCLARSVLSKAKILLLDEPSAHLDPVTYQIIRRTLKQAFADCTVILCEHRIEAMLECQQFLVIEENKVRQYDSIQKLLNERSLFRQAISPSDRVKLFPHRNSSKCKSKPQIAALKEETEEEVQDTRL

| SMILES | EC50 |
| --- | --- |
| Nc1cc(C(F)(F)F)c2nc1-c1nnc(o1)C(O)(C(F)(F)F)CCCCCN(CC(F)(F)F)C2=O (single isomer, unassigned) [Compound 207, 17-amino-6-hydroxy-12-(2,2,2-trifluoroethyl)-6,15-bis(trifluoromethyl)-19-oxa-3,4,12,18-tetrazatricyclo [12.3.1.12,5] nonadeca-1(18),2,4,14,16-pentaen-13-one] | > 1000 nM |
| COC1CCCCCCC(O)(C(F)(F)F)C2=NN=C(O2)c2nc1c(C(F)(F)F)cc2N (single isomer, unassigned) [Compound 14, 17-Amino-13-methoxy-6,15-bis(trifluoromethyl)-19-oxa-3,4,18-triazatricyclo[12.3.1.12,5]nonadeca-1(18),2,4,14,16-pentaen-6-ol] | < 500 nM |
| Nc1cc(C(F)(F)F)c2nc1-c1nnc(o1)C(O)(C(F)(F)F)CCC(=O)CCCC2=O (single isomer, unassigned) [Compound 34, 17-amino-6-hydroxy-6,15-bis(trifluoromethyl)-19-oxa-3,4,18-triazatricyclo[12.3.1.12,5]nonadeca-1(18),2,4,14,16-pentaene-9,13-dione] | < 500 nM |
| Nc1cc(C(F)(F)F)c2nc1-c1nnc(o1)[C@@](O)(C(F)(F)F)CCCCCN(Cc1cc(F)cc(C3CCC3)c1)C2=O [Compound 248, (6R)-17-amino-12-[(3-cyclobutyl-5-fluoro-phenyl)methyl]-6-hydroxy-6,15-bis(trifluoromethyl)-19-oxa-3,4,12,18-tetrazatricyclo [12.3.1.12,5] nonadeca-1(18),2,4,14,16-pentaen-13-one] | < 500 nM |
| COC1CCCCCCC(O)(C(F)(F)F)C2=NN=C(O2)c2nc1c(C(F)(F)F)cc2N (single isomer, unassigned) [Compound 12, 17-Amino-13-methoxy-6,15-bis(trifluoromethyl)-19-oxa-3,4,18-triazatricyclo[12.3.1.12,5]nonadeca-1(18),2,4,14,16-pentaen-6-ol] | < 500 nM |
| Nc1cc(C(F)(F)F)c2nc1-c1nnc(o1)[C@](O)(C(F)(F)F)CCCC(F)(F)CCC2=O [Compound 39, (6S)-17-amino-10,10-difluoro-6-hydroxy-6,15-bis(trifluoromethyl)-19-oxa-3,4,18-triazatricyclo[12.3.1.12,5]nonadeca-1(18),2,4,14,16-pentaen-13-one] | 500 to 1000 nM |
| Cc1ccccc1CN1CCCCC[C@](O)(C(F)(F)F)C2=NN=C(O2)c2nc(c(C(F)(F)F)cc2N)C1=O [Compound 127, (6R)-17-amino-6-hydroxy-12-(0-tolylmethyl)-6,15-bis (trifluoromethyl)-19-oxa-3,4,12,18-tetrazatricyclo [12.3.1.12,5] nonadeca-1(18),2,4,14,1 6-pentaen-13-one] | < 500 nM |
| Cc1c(CN2CCCCC[C@](O)(C(F)(F)F)C3=NN=C(O3)c3nc(c(C(F)(F)F)cc3N)C2=O)cccc1OC(F)(F)F [Compound 180, (6R)-17-amino-6-hydroxy-12-[[2-methyl-3-(trifluoromethoxy)phenyl]methyl]-6,15-bis(trifluoromethyl)-19-oxa-3,4,12,18-tetrazatricyclo [12.3.1.12,5] nonadeca-1(18),2,4,14,1 6-pentaen-13-one] | < 500 nM |
| Nc1cc(C(F)(F)F)c2nc1-c1nnc(o1)C(O)(C(F)(F)F)CCCC(=O)CCC2=O (single isomer, unassigned) [Compound 37, 17-amino-6-hydroxy-6,15-bis(trifluoromethyl)-19-oxa-3,4,18-triazatricyclo[12.3.1.12,5]nonadeca-1(18),2,4,14,16-pentaene-10,13-dione] | > 1000 nM |
| Nc1cc(C(F)(F)F)c2nc1-c1nnc(o1)[C@@](O)(C(F)(F)F)CCCCCN(C1CC3(CCC3)C1)C2=O [Compound 87, (6R)-17-Amino-6-hydroxy-12-spiro[3.3]heptan-2-yl-6,15-bis(trifluoromethyl)-19-oxa-3,4,12,18-tetrazatricyclo [12.3.1.12,5] nonadeca-1(18),2,4,14,1 6-pentaen-13-one] | < 500 nM |

Second part, the compound after the results:

| EC50 | SMILES |
| --- | --- |
| < 500 nM | CC(C)(C)C1(N2CCCCC[C@](O)(C(F)(F)F)C3=NN=C(O3)c3nc(c(C(F)(F)F)cc3N)C2=O)CC1 [Compound 226, (6R)-17-amino-12-(1-tert-butylcyclopropyl)-6-hydroxy-6,15-bis(trifluoromethyl)-19-oxa-3,4,12,18-tetrazatricyclo [12.3.1.12,5] nonadeca-1(18),2,4,14,16-pentaen-13-one] |
| < 500 nM | Nc1cc(C(F)(F)F)c2nc1-c1nnc(o1)C(O)(C(F)(F)F)CCCCCCC2(O)C(F)(F)F (single isomer, unassigned) [Compound 27, 17-amino-6,13,15-tris(trifluoromethyl)-19-oxa-3,4,18-triazatricyclo[12.3.1.12,5]nonadeca-1(18),2,4,14,16-pentaene-6,13-diol] |
| < 500 nM | Nc1cc(C(F)(F)F)c2nc1-c1nnc(o1)C(O)(C(F)(F)F)CCCCCCC2O (single isomer, unassigned) [Compound 8, 17-amino-6,15-bis(trifluoromethyl)-19-oxa-3,4,18-triazatricyclo[12.3.1.12,5]nonadeca-1(18),2,4,14,16-pentaene-6,13-diol] |
| < 500 nM | Nc1cc(C(F)(F)F)c2nc1-c1nnc(o1)[C@@](O)(C(F)(F)F)CCCCCN(CC1CCC(F)(F)CC1)C2=O [Compound 242, (6R)-17-amino-12-[(4,4-difluorocyclohexyl)methyl]-6-hydroxy-6,15-bis(trifluoromethyl)-19-oxa-3,4,12,18-tetrazatricyclo [12.3.1.12,5] nonadeca-1(18),2,4,14,16-pentaen-13-one] |
| < 500 nM | COc1cc(CN2CCCCC[C@](O)(C(F)(F)F)C3=NN=C(O3)c3nc(c(C(F)(F)F)cc3N)C2=O)ccc1C(F)(F)F [Compound 230, (6R)-17-amino-6-hydroxy-12-[[3-methoxy-4-(trifluoromethyl)phenyl]methyl]-6,15-bis(trifluoromethyl)-19-oxa-3,4,12,18-tetrazatricyclo [12.3.1.12,5] nonadeca-1(18),2,4,14,16-pentaen-13-one] |
| < 500 nM | Nc1cc(C(F)(F)F)c2nc1-c1nnc(o1)C(O)(C(F)(F)F)CCCCCc1ccccc1-2 (single isomer, unassigned) [Compound 4, 21-amino-6,19-bis(trifluoromethyl)-23-oxa-3,4,22-triazatetracyclo[16.3.1.12,5.012,17]tricosa-1(22),2,4,12,14,16,18,20-octaen-6-ol] |
| < 500 nM | Cc1ccc(CN2CCCCC[C@](O)(C(F)(F)F)C3=NN=C(O3)c3nc(c(C(F)(F)F)cc3N)C2=O)cc1 [Compound 134, (6R)-17-amino-6-hydroxy-12-(p-tolylmethyl)-6,15-bis (trifluoromethyl)-19-oxa-3,4,12,18-tetrazatricyclo [12.3.1.12,5] nonadeca-1(18),2,4,14,1 6-pentaen-13-one] |
| < 500 nM | CC[C@@H](C)N1CCCCC[C@](O)(C(F)(F)F)C2=NN=C(O2)c2nc(c(C(F)(F)F)cc2N)C1=O [Compound 89, (6R)-17-Amino-6-hydroxy-12-[(1R)-1-methylpropyl]-6,15-bis (trifluoromethyl)-19-oxa-3,4,12,18-tetrazatricyclo [12.3.1.12,5] nonadeca-1(18),2,4,14,1 6-pentaen-13-one] |
